According to patent US20050277586A1, “Peptide chemically modified with polyethylene glycol” (priority 2002, published 2005):

Assays:
A549 cell = assay: Luciferase-expressing plasmid introduction into A549 cell; type: cell-based, human
Description: (§1) A cell line established from monkey kidney (Vero cell) and a human bladder cancer cell (T24 cell) purchased from American Type Culture Collection (ATCC) and human lung cancer cell (A549 cell) purchased from Dainippon Pharmaceutical were inoculated on a 24 well culture plate (manufactured by NALGEN NUNC) at 1×10^5 cells/well. Vero cell and A549 cell were cultivated in DMEM (manufactured by Life Technologies Oriental) supplemented with 10% fetal bovine serum (hereinafter referred to as FBS, manufactured by NICHIREI), and T24 cell was cultivated in McCoy's 5a (manufactured by Life Technologies Oriental) supplemented with 10% FBS in 5% CO2 atmosphere at 37° C. for 24 hours. […] The luciferase activity expressed in the cell was then measured by the method instructed in luciferase assay system (manufactured by Promega). […]
(§2) 20 μL of this cell lysate and 100 μL of the Luciferase Assay Reagent II attached to the kit was added to a fluorescence-measuring plate (Microlite™ 1 plate, manufactured by Dynatech), and after mixing, fluorescence was measured for 1 second by using a multilabel counter (ARVO™ SY1420 MULTILABEL COUNTER, manufactured by Wallac Beltold. […]

T24 cell = assay: Luciferase-expressing plasmid introduction into T24 cell; type: cell-based, human
Description: as §1, §2

Vero cell = assay: Accumulation of FITC-labeled oligonucleotide in cell nucleus; type: cell-based, monkey; conditions: 300 nM FITC-labeled oligonucleotide, 2.5 μM peptide
Experimental: Vero cell was inoculated in the well of a chamber slide (Lab-Tek II chamber slide, size 4 well, manufactured by NALGEN NUNC) at a rate of 1×10^5 cells/well, and the cells were cultivated in DMEM supplemented with 10% FBS in 5% CO2 atmosphere at 37° C. for 24 hours. After removing the medium, opti-MEM containing 300 nM FITC-labeled oligonucleotide prepared in Example 6 and 2.5 μM of the peptide of SEQ ID NO: 1 prepared in Example 1 was added, and the cultivation was continued for 4 hours. The medium was replaced with DMEM supplemented with 10% FBS, and the cultivation was continued in 5% CO2 atmosphere at 37° C. for another 24 hours. After washing the cell with PBS, the cells were fixed by using PBS containing 4% paraformaldehyde, and accumulation of FITC-labeled oligonucleotide in the cell nucleus was confirmed by using a fluorescence microscope (AH-3, manufactured by Olympus). […] On the other hand, accumulation of FITC-labeled oligonucleotide in the cell was not confirmed in the absence of the peptide of SEQ ID NO: 1.

21mer oligonucleotide = assay: Binding ability to oligonucleotide (gel electrophoresis); conditions: charge ratio (±ratio) of 10
Experimental: The 21mer oligonucleotide prepared by the procedure described in Example 6 (final concentration, 6.7 μM) and the peptide prepared by the procedure described in Examples 1 to 3 were mixed in 20 mM Tris-HCl buffer (pH=7.2) containing 150 mM NaCl at a charge ratio (±ratio) of 0 to 10, and the mixture was allowed to stand at 37° C. for 30 minutes. Next, 7.5 μL of this solution was mixed with an equal amount of Tris-borate buffer (pH=8.2) containing 80% formamide, and electrophoresis was conducted on 25% polyacrylamide gel containing 7M urea. After the electrophoresis, the gel was stained with 5% aqueous solution of Stains all (manufactured by Funakoshi) containing 50% formamide and washed with water to thereby determine the binding of the oligonucleotide and the peptide.
The ±ratio (charge ratio) indicated in FIG. 10 is the ratio of the number (+) of the positively-charged groups in the peptide to the number (−) of negatively-charged groups in the nucleic acid. As evident in FIG. 10, the amount of oligonucleotide that became bound to the peptide increased with the increase in the charge ratio (±ratio), and the oligonucleotide was fully bound to the peptide at a charge ratio (±ratio) of 10. The peptides of SEQ ID NO: 2 to SEQ ID NO: 24 were also found to bind at a charge ratio (±ratio) of 10.

[1] = Measurement of CD spectrum with and without SDS; type: physicochemical; conditions: 10 mM phosphate buffer pH 7, 50 mM NaCl, 35° C.
Experimental: The peptide dissolved in 10 mM phosphate buffer (pH=7) containing 50 mM NaCl was evaluated for its CD spectrum in the presence and in the absence of 5 mM SDS by using a circular dichroism spectrophotometer (J-500A, manufactured by JASCO). The cell length was 1 mm. The measurement was conducted at 35° C. for 6 times in total.

## TRYLRIHPRSWVHQIALRLRYLRIHPRSWVHQIALRS [SEQ ID NO: 1]
A549 cell
  Luciferase activity: 8.7 × 10^4 cps/mg protein
T24 cell
  Luciferase activity: 7.8 × 10^3 cps/mg protein
Vero cell
  Accumulation of FITC-labeled oligonucleotide in the cell nucleus: FITC-labeled oligonucleotide was accumulated in the cell nucleus
21mer oligonucleotide
  Binding of oligonucleotide to the peptide: fully bound
[1]; 5 mM SDS
  α-helix structure in CD spectroscopy in the presence of SDS: are in α-helix structure in the presence of SDS
[1]; no SDS
  α-helix structure in CD spectroscopy in the absence of SDS: do not take α-helix structure in an aqueous solution solely containing an inorganic salt
